# Reference: patent US10898548B2, “Modulators of protein tyrosine phosphatase and uses thereof” (LEUVAS THERAPEUTICS, priority 2015, dated 2021)
# Legend:
# human primary monocytes [1] = assay: static adhesion of fMLP-stimulated monocytes to ICAM-1; type: cell-based; set-up: unit not given here; details: 0.075 micromolar PTPX, 30 minutes; 50 nM fMLP; Control 212.8
# human primary monocytes [2] = assay: as above; type: cell-based; set-up: adherent monocytes on ICAM-1: unit not given here
# Method: We investigated the functional effect of PTPRG activation on integrin activation and mediated adhesion by chemoattractants in human primary monocytes and PMNs in a static and flow adhesion assays. Briefly, human primary monocytes or polymorphonuclear cells were suspended at 5×10^6/ml in standard adhesion buffer. Adhesion assays were performed on 18-well glass slides coated with 1 mg/ml human fibrinogen or with 1 μg/ml human ICAM-1 in PBS; 20 μl of cell suspension were added to the coated wells and stimulated for 1 min at 37° C. with 5 μl of fMLP, 0.05 μM final concentration. After rapid washing, adherent cells were fixed in ice-cold 1.5% glutaraldehyde in PBS, and still images of adherent cells in 0.2 mm^2 fields were acquired al 20× phase contrast magnification, NA 0.40, with a charge-coupled device camera (ICD-42B; Ikegami) connected to an inverted microscope (IX50; Olympus). Image acquisition and computer-assisted enumeration of adherent cells were performed with ImageJ (National Institute of Health).
# We then investigated the functional effect of TAT-ICD on integrin activation and mediated adhesion by chemoattractants. Static adhesion assays were performed as described in Example 2. […] Data are mean number of adherent cells in 5 experiments in triplicate.
# To evaluate whether JAK2 mediates chemoattractant-induced adhesion of human monocytes to beta-2 integrin substrates human monocytes were treated control buffer or P1 or with the three JAK inhibitors. Briefly, human monocytes were treated with buffer (CTRL=control), or 40 μM P1 or P1-TKIP peptides, 100 μM AG490 or 200 μM WHI-P154 for 1 hour at 37° C. and stimulated with 50 nM fMLP for 60 sec.; data are mean and standard deviation (SD) of 6 experiments in triplicate.
# Human primary monocytes were isolated from buffy coats from healthy donors and pre-incubated for 30 minutes at room temperature with our without 0.075 micromolar PTPX. Standard adhesion assays on ICAM-1 coated glass slides. Cell suspensions were added to the coated wells for 1 minute, stimulated for 1 minute at 37° C. with […] fMLP. Non-adherent cells were washed away and adherent cells were fixed in ice-cold 1.5% glutaraldehyde in PBS and adherent cells were counted using computer assisted automatic quantification. Data are from a representative experiment and are the mean and standard deviation of 24 measurements per condition (Table 35).
# JAK2 = target: T1, JAK2 (Homo sapiens, UniProt O60674); assay: phospho-JAK2 Western Blot on monocytes; type: cell-based; details: monocytes, Resting 20.2
# T1 construct: endogenous in cells; host or cells: human primary monocytes
# T1 sequence (O60674 whole entry): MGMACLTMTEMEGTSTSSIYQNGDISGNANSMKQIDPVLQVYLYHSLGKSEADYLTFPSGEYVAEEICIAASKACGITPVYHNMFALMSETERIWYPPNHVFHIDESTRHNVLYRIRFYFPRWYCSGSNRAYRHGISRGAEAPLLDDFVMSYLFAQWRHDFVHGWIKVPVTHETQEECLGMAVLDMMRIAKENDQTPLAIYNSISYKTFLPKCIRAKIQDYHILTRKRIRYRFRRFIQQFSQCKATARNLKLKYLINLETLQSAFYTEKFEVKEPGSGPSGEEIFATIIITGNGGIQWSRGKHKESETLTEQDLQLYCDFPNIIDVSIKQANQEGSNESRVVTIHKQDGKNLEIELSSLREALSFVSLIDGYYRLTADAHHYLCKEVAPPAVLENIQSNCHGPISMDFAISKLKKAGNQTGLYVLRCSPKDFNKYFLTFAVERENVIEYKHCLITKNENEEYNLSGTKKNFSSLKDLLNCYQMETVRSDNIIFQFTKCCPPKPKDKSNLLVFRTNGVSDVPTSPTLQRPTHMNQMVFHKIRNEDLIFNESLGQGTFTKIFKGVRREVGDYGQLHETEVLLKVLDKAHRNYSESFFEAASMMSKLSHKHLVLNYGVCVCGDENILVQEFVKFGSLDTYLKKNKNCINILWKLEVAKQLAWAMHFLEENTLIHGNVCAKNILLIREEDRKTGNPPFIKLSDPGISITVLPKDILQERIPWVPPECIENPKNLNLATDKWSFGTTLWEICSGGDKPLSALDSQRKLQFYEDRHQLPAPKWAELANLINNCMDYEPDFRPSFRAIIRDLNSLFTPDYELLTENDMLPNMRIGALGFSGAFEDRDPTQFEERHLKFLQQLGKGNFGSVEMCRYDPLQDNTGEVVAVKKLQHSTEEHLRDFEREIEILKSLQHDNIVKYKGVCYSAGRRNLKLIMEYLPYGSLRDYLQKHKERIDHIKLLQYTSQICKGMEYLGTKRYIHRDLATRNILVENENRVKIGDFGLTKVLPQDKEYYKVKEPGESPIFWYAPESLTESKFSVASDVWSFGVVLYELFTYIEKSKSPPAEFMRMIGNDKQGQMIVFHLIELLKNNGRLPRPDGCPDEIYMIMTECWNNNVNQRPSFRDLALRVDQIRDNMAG
# Text: (§1) JAK2 regulation by PTPRG as assessed through the high-throughput phospho-proteomics analysis evidenced that PTPRG activation (Example 4, Table 9 and 10) provides a useful example of the exploitation of this analysis system for identification of targets and unexpected indications/uses for known and novel agents that regulate the phoshoproteome. […] Furthermore, the capability of fMLP to trigger JAKs activation has never been observed. The results described in Example 4 unexpectedly implicate JAK2 de-phosphorylation by PTPRG as playing a role in the anti-adhesive role of PTPRG on monocytes. To test this system-generated hypothesis we first set out to define the role of JAK2 in fMLP-triggered rapid adhesion in monocytes. Time course experiments, either performed with ELISA assay or Western Blot. Briefly, purified human monocytes were treated with buffer (resting) or with 50 nM fMLP for the indicated times (Table 12), and the phosphorylation was assessed by p-Jak2 elisa and Western Blot analysis. The JAK2 activation was determined with Elisa Kit JAK2 (pYpY1007/1008) (Invitrogen). Briefly, cells were stimulated with agonist and lysed following manufacturer's protocol; levels of phospho-JAK2 were quantified (absorbance at 450 nm) with a micro-well plate reader (Victor™ X5 Multilabel Plate Reader, Perkin Elmer). For Western blot analysis, cells were lysed in ice-cold 1% Nonidet P-40 buffer, containing phosphatase inhibitors and complete protease inhibitor cocktail (Roche). Total cell lysates were quantified by Bradford assay (Bio-Rad). Equal amounts of total lysates or of isolated membranes (as described in Example 1) were subjected to 10% SDS-PAGE and then blotted. After incubation with anti-PTPRG, anti gp91^Phox, anti phospho-JAK2, anti JAK2 and HRP-linked secondary antibodies (GE Healthcare), immunoreactive bands were visualized by ECL detection (EMD Millipore). Intensities of band signals were quantified by densitometric analysis (Quantity One, Bio-Rad) by using ImageQuant Las4000. Data are mean value of three experiments; the relative ratio of the band intensity of phosphor-JAK2 was normalized to the level of JAK2 band intensities.
# To evaluate whether JAK2 mediates fMLP-triggered rapid adhesion in human monocytes, we tested the capability of three JAK inhibitors, AG490, WHI-P154 and P1-TKIP peptide, to block adhesion triggering. Briefly, Monocytes were treated with buffer (resting and Control=CTRL), 100 μM AG490, 40 μM P1 or P1-TKIP peptides, or 200 μM WHI-P154 for 1 hour at 37° C. and stimulated with 50 nM fMLP for 180 sec. Cell lysates were probed with anti phospho-JAK2 and with anti JAK2. Western Blot immuoreactive band quantification; the relative ratio of the band intensity of phospho-JAK2 was normalized to the level of JAK2 band intensities; mean values of three experiments (Table 13).
# The impact of TAT-ICD and P1-WD on JAK2 activation by chemoattractants was also evaluated by Western Blot analysis. Briefly, monocytes were treated with buffer (Resting, CTRL), 0.5 uM TAT-ICD, 50 μM TAT peptide, 50 μM P1-WD, P1 or P1-WD scrambled peptides for 1 hour at 37° C. and stimulated with 50 nM fMLP for 180 sec (the resting cells were not stimulated with fMLP). Total lysates were probed with anti phospho-JAK2 or with anti JAK. Western Blot immunoreactive bands were quantified and the relative ratio of the band intensity of phospho-JAK2 was normalized to the level of JAK2 band intensities; data are mean value and standard deviation of three experiments (Table 19).
# JAK2 (pYpY1007/1008) = assay: p-JAK2 ELISA on monocytes; type: cell-based, human; details: monocytes, Resting 100.0, in % (unit assumed)
# Text: as §1
# Briefly, p-JAK2 ELISA assay on human monocytes treated with buffer (CTRL=control), 50 μM P1-WD, P1 or P1-WD scrambled peptides (Table 17), or with buffer (CTRL=control), 0.5 uM TAT-ICD or 50 μM TAT peptide (Table 18) for 1 hour at 37° C. and stimulated with 50 nM fMLP for 90 sec. Shown are percentages of fold increases over the control; mean values of 3 experiments in triplicate.
# PTPRG = assay: in vitro phosphatase activity (pNPP) on membranes from human primary monocytes; type: biochemical; details: orthovanadate treatment
# Method: We first tested the biochemical activity of the fusion peptide by performing in vitro assays of phosphatase activity on purified membranes isolated from human primary monocytes compared to membranes isolated from human primary polymorphonuclear cells (PMNs). Human primary monocytes and polymorphonuclear (PMNs) cells were isolated from whole blood of healthy donors. Purity of monocyte preparation was evaluated by flow cytometry after staining with fluorescein isothiocyanate (FITC)-conjugated anti-CD14 antibody and was more than 95%. Isolated cells were kept at 37° C. in standard adhesion buffer (PBS, 1 mM CaCl2, 1 mM MgCl2, 10% FBS, pH 7.2) and used within 1 h.
# The phosphatase activity in membrane fractions isolated from human monocytes and PMNs was assessed. […] Cells were then sonicated twice (6 sec, 15% W) and centrifuged at 2000 rpm for 10 minutes. The supernatants were collected and centrifuged at 28000 rpm for 60 minutes. After centrifugation, the supernatants were discarded, and the membrane pellets were dissolved in 20 mM tris pH 7.4. Equal amount of membrane fractions were added to pNPP buffer containing 20 mM tris, 10 mM DTT and 2 mM pNPP. Following, DMSO and peptides were added. After 30 minutes of incubation, levels of de-phosphorylation, in presence or absence of orthovanadate, were measured at 405 nm by a plate reader. Values are absorbance at 405 nn shown as percent fold increase over the blank; mean values of three experiments are shown. *p<0.001 vs vehicle (DMSO).
compound,measurement,setting,value
"PTPx: external domain of PTPRG, amino acids 20-736, produced with a histidine tag",adherent monocytes on ICAM-1,human primary monocytes [1],32.7
same,adherent monocytes on ICAM-1,"human primary monocytes [2]; 0.075 micromolar PTPX, 30 minutes, No Agonist, Control 22.2",3.4
fMLP,"phospho-JAK2 band intensity normalized to JAK2, Western Blot",JAK2; 50 nM fMLP 90″,37.8
same,"phospho-JAK2 band intensity normalized to JAK2, Western Blot",JAK2; 50 nM fMLP 120″,46.7
same,"phospho-JAK2 band intensity normalized to JAK2, Western Blot",JAK2; 50 nM fMLP 180″,58.5
same,"phospho-JAK2 level, ELISA",JAK2 (pYpY1007/1008); 50 nM fMLP 90″,107.3
same,"phospho-JAK2 level, ELISA",JAK2 (pYpY1007/1008); 50 nM fMLP 120″,128.3
same,"phospho-JAK2 level, ELISA",JAK2 (pYpY1007/1008); 50 nM fMLP 180″,155.7
same,increase in monocyte adhesion to ICAM-1,human primary monocytes [2]; stimulation with fMLP vs no agonist,approximately 10 fold
"[Na+].[Na+].[Na+].[O]=[V]([O-])([O-])[O-] [Orthovanadate, Na3VO4, reference compound]",phosphatase activity elicited in membranes,PTPRG,completely prevented phosphatase activity
